Results from publication PMC4025172 (Breast Cancer Research and Treatment, 2014).
Where two headings read alike, the source gives them in different places. Marks after values point to notes of the source that are not given here. Values belong to the compound of their own block, whether it stands above or below them.

What was measured:
[1] = format: in vivo, human; conditions: for AUC(0–24),C2: parameter not reliable; for AUC(0-t) / Cmax / concentration at -0.5 h / Tmax: serum, other: vaginal, 0.03 mg
[2] = cited from earlier work
[3] = system: nuclear ER; conditions: cited from earlier work
[4] = system: E3 receptor complex / E2 receptor complex; conditions: cited from earlier work
[5] = system: breast cancer; conditions: retrospective cohort study in Finland, postmenopausal patients; cited from earlier work
[6] = system: BC cells; conditions: depends on concentration and duration of action; cited from earlier work
[7] = cited from earlier work; remark: listed apart in the source
[8] = after 4 weeks of daily application
[9] = vaginal ring or tablets with E2, postmenopausal BC patients (no AI therapy)

- t max,C2 ([1]; Visit C2 (day 28), maximum): 8.0 h
- AUC(0–24),C2 ([1]; Visit C2 (day 28), maximum): 0.457 ng·h/mL
- t max,C2 ([1]; Visit C2 (day 28), minimum): 4.0 h
- C max,C2 ([1]; Visit C2 (day 28), minimum, LLOQ E3 10.00 pg/ml): <LLOQ
- AUC(0–24),C2 ([1]; Visit C2 (day 28), minimum): <LLOQ
- C max,E ([1]; Visit E (day 0), first application, maximum): 0.168 ng/mL
- AUC(0–24),E ([1]; Visit E (day 0), maximum): 0.378 ng·h/mL
- t max,E ([1]; Visit E (day 0), maximum): 3.1 h
- AUC(0–24),E ([1]; Visit E (day 0), minimum): <LLOQ
- t max,E ([1]; Visit E (day 0), minimum): 2.0 h
- C max,E ([1]; Visit E (day 0), minimum, LLOQ E3 10.00 pg/ml): <LLOQ
- women with slightly increased serum E3 ([1]; after 4 weeks): 8 women
- patients without detectable increase of E3 [1, 8]: 50%
- women whose highest detected E3 level was below 20 pg/ml [1, 8]: 25%
- women with transient increase in serum E3 ([1]; after the first application (visit E, day 0)): 15 of 16
- trough serum E3 levels ([1]; all visits, all except two subjects, LLOQ 10.00 pg/ml): below LLOQ
- AUC(0-t) ([1]; female, human, AUC(0–24),C2, Visit C2 (day 28), mean, n=15, not reliable due to late metabolism and insufficient testing points): 0.131 ng·h/mL
- AUC(0-t) ([1]; female, human, AUC(0–24),E, Visit E (day 0), GeoMean): 0.154 ng·h/mL
- AUC(0-t) ([1]; female, human, AUC(0–24),E, Visit E (day 0), mean, n=16): 0.212 ng·h/mL
- AUC(0-t) ([1]; female, human, AUC(0–24),E, Visit E (day 0), median): 0.241 ng·h/mL
- Cmax ([1]; female, human, C max,C2, Visit C2 (day 28), GeoMean): 0.011 ng/mL
- Cmax ([1]; female, human, C max,C2, Visit C2 (day 28), mean, n=16): 0.0158 ng/mL
- Cmax ([1]; female, human, C max,C2, Visit C2 (day 28), median): 0.0091 ng/mL
- Cmax ([1]; female, human, C max,E, Visit E (day 0), GeoMean): 0.0882 ng/mL
- Cmax ([1]; female, human, C max,E, Visit E (day 0), mean, n=16): 0.104 ng/mL
- Cmax ([1]; female, human, C max,E, Visit E (day 0), median): 0.11 ng/mL
- concentration at -0.5 h ([1]; female, human, E3 baseline and trough, maximum, visit C1 (week 2)): 0.0492 ng/mL
- concentration at -0.5 h ([1]; female, human, E3 baseline and trough, maximum, visit C2 (week 4)): 0.0145 ng/mL
- concentration at -0.5 h ([1]; female, human, serum estriol (E3) concentration, Visit C2 (day 28), maximum, −0.5 h (pre-dose)): 0.0145 ng/mL
- concentration at -0.5 h ([1]; female, human, serum estriol (E3) concentration, Visit C2 (day 28), mean, −0.5 h (pre-dose)): 0.00091 ng/mL
- concentration at -0.5 h ([1]; female, human, serum estriol (E3) concentration, Visit C2 (day 28), median, −0.5 h (pre-dose)): 0 ng/mL
- concentration at -0.5 h ([1]; female, human, serum estriol (E3) concentration, Visit C2 (day 28), minimum, −0.5 h (pre-dose)): 0 ng/mL
- concentration at -0.5 h ([1]; female, human, serum estriol (E3) concentration, Visit E (day 0), maximum, −0.5 h (pre-dose)): 0 ng/mL
- concentration at -0.5 h ([1]; female, human, serum estriol (E3) concentration, Visit E (day 0), mean, −0.5 h (pre-dose)): 0 ng/mL
- concentration at -0.5 h ([1]; female, human, serum estriol (E3) concentration, Visit E (day 0), median, −0.5 h (pre-dose)): 0 ng/mL
- concentration at -0.5 h ([1]; female, human, serum estriol (E3) concentration, Visit E (day 0), minimum, −0.5 h (pre-dose)): 0 ng/mL
- Tmax ([1]; female, human, t max,C2, Visit C2 (day 28), mean, n=8): 7.2 h
- Tmax ([1]; female, human, t max,C2, Visit C2 (day 28), median): 7.9 h
- Tmax ([1]; female, human, t max,E, Visit E (day 0), mean, n=15): 2.5 h
- Tmax ([1]; female, human, t max,E, Visit E (day 0), median): 2.2 h
- exposure (AUC0–24) at end of initial therapy compared with study entry ([1]; human, in vivo): significantly lower
- concentration at -0.5 h ([1]; human, trough E3 serum concentration, one subject, visit C1): 0.0223 ng/mL
- E3 baseline and trough ([1]; maximum, visit C1 (week 2)): 49.20 pg/mL
- E3 baseline and trough ([1]; maximum, visit C2 (week 4)): 14.50 pg/mL
- E3 baseline and trough ([1]; maximum, visit C3 (week 8)): 0.00 pg/mL
- E3 baseline and trough ([1]; maximum, visit C4 (week 12)): 0.00 pg/mL
- E3 baseline and trough ([1]; maximum, visit E (day 0, baseline)): 0.00 pg/mL
- E3 baseline and trough ([1]; mean (SD), visit C1 (week 2), n=14): 5.11 (14.01)^a pg/ml
- E3 baseline and trough ([1]; mean (SD), visit C2 (week 4)): 0.91(3.63) pg/ml
- E3 baseline and trough ([1]; mean (SD), visit C3 (week 8)): 0.00 pg/mL
- E3 baseline and trough ([1]; mean (SD), visit C4 (week 12)): 0.00 pg/mL
- E3 baseline and trough ([1]; mean (SD), visit E (day 0, baseline)): 0.00 pg/mL
- E3 baseline and trough ([1]; minimum, visit C1 (week 2)): 0.00 pg/mL
- E3 baseline and trough ([1]; minimum, visit C2 (week 4)): 0.00 pg/mL
- E3 baseline and trough ([1]; minimum, visit C3 (week 8)): 0.00 pg/mL
- E3 baseline and trough ([1]; minimum, visit C4 (week 12)): 0.00 pg/mL
- E3 baseline and trough ([1]; minimum, visit E (day 0, baseline)): 0.00 pg/mL
- C max at visit C2 compared to visit E ([1]; p < 0.0001): significantly lower
- subjects without any quantifiable concentration of E3 ([1]; visit C2 (day 28)): half
- time of serum E3 increase post-insertion ([1]; visit C2 (day 28)): 6 to 8 h
- time of C max post-insertion ([1]; visit E (day 0), first application): 2 to 3 h
Structure (SMILES): C[C@]12CC[C@@H]3c4ccc(O)cc4CC[C@H]3[C@@H]1C[C@@H](O)[C@@H]2O [E3, estriol]
- serum E2 or E3 ([2]; vaginal 0.25 mg E3 twice weekly, 12 weeks, no PK values determined): no increase
- serum levels of E3 ([2]; vaginal application of conventional 0.50 mg dose of E3, ref [8]–[39]): increased
- affinity to the nuclear ER as compared to E2 [3]: 10 times lower
- nuclear retention time of the receptor complex [4]: < 6 h
- association with risk of BC [5]: neither the use of vaginal E2 and E3 preparations nor oral E3 were associated with a risk of BC
- effect on BC cells in vitro [6]: can stimulate
- metabolism into E1 or E2 ([7]; E3 is an end product of estrogen metabolism): cannot be transformed back
- metabolic clearance [7]: rapid
- vaginal absorption as the vaginal epithelium matures ([7]; within a few days to weeks after start of vaginal treatment): decreases

Structure (SMILES): C[C@]12CC[C@@H]3c4ccc(O)cc4CC[C@H]3[C@@H]1CC[C@@H]2O [E2, estradiol]
- serum levels of E2 ([2]; vaginal administration of any dose of E2 in AI users, ref [3]–[14], [15]–[18]): increases
- effect on vaginal atrophy [2, 9]: efficiently relieved vaginal atrophy
- serum levels of E2 and E1 [2, 9]: temporarily raised
- nuclear retention time of the receptor complex [4]: > 12 h
- effect on BC cells in vitro [6]: can stimulate
